From ChEMBL document CHEMBL1201862, “PubChem BioAssay data set” (2004)
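The compound was tested at five concentrations on cells cultured in 96-well plates, with a 48-hour exposure period. The concentration for 50% growth inhibition is given as GI50.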 The source made the active and inactive calls. No stated cut-off is given here; in the data, active = GI50 up to about 1.1 µM and inactive = higher.

Assays:
Assay in all cases: NCI-60 cell line screen, 48 h
[1] = system: NCI-H23
[2] = system: DMS-114
[3] = system: CAKI-1
[4] = system: NCI-H460
[5] = system: MOLT-4
[6] = system: OVCAR-8
[7] = system: KM12
[8] = system: COLO 205
[9] = system: A549
[10] = system: M19-MEL
[11] = system: NCI-H226
[12] = system: SNB-19
[13] = system: HCT-15
[14] = system: HOP-92
[15] = system: SF-539
[16] = system: HOP-62
[17] = system: SN12C
[18] = system: Malme-3M
[19] = system: K562
[20] = system: RPMI-8226
[21] = system: CCRF-CEM
[22] = system: UACC-62
[23] = system: SK-MEL-2
[24] = system: HT-29
[25] = system: TK-10
[26] = system: KM-20L2
[27] = system: U-251
[28] = system: SK-MEL-28
[29] = system: SR
[30] = system: EKVX
[31] = system: OVCAR-5
[32] = system: SK-MEL-5
[33] = system: SNB-78
[34] = system: UACC-257
[35] = system: OVCAR-3
[36] = system: HCC 2998
[37] = system: SF-268
[38] = system: HL-60
[39] = system: ACHN
[40] = system: SF-295
[41] = system: SK-OV-3
[42] = system: OVCAR-4
[43] = system: A498
[44] = system: HCT-116
[45] = system: SW-620
[46] = system: UO-31
[47] = system: M14
[48] = system: 786-0
[49] = system: LXFL 529
[50] = system: IGROV-1
[51] = system: NCI-H522
[52] = system: LOX IMVI
[53] = system: BT-549
[54] = system: T47D
[55] = system: DU-145
[56] = system: MDA-MB-231
[57] = system: RXF 393
[58] = system: MDA-N
[59] = system: SNB-75
[60] = system: MDA-MB-435
[61] = system: MCF7
[62] = system: Hs-578T
[63] = system: NCI/ADR-RES
[64] = system: PC-3

For `CN/N=C(/Cc1occc(=O)c1O)C(=O)Nc1ccccc1C`, the GI50 [1] was > 100 µM (inactive), the GI50 [2] was > 100 µM (inactive) and the GI50 [3] was > 100 µM (inactive). For the same molecule, the GI50 [4] was > 100 µM (inactive), the GI50 [5] was > 100 µM (inactive) and the GI50 [6] was > 100 µM (inactive). For the same molecule, the GI50 [7] was > 100 µM (inactive), the GI50 [8] was > 100 µM (inactive) and the GI50 [9] was > 100 µM (inactive). The GI50 [10] was > 100 µM (inactive), the GI50 [11] was > 100 µM (inactive) and the GI50 [12] was > 100 µM (inactive). For the same molecule, the GI50 [13] was greater than 100 µM, the GI50 [14] was 20.4 µM (inactive) and the GI50 [15] was > 100 µM (inactive). For the same molecule, the GI50 [16] was > 100 µM (inactive), the GI50 [17] was > 100 µM (inactive) and the GI50 [18] was > 100 µM (inactive). For the same molecule, the GI50 [19] was > 100 µM (inactive), the GI50 [20] was > 100 µM (inactive) and the GI50 [21] was > 100 µM (inactive). For the same molecule, the GI50 [22] was > 100 µM (inactive), the GI50 [23] was > 100 µM (inactive) and the GI50 [24] was > 100 µM (inactive). The GI50 [25] was > 100 µM (inactive), the GI50 [26] was > 100 µM (inactive) and the GI50 [27] was > 100 µM (inactive). For the same molecule, the GI50 [28] was > 100 µM (inactive), the GI50 [29] was > 100 µM (inactive) and the GI50 [30] was > 100 µM (inactive). The GI50 [31] was > 100 µM (inactive), the GI50 [32] was > 100 µM (inactive) and the GI50 [33] was > 100 µM (inactive). For the same molecule, the GI50 [34] was > 100 µM (inactive), the GI50 [35] was > 100 µM (inactive) and the GI50 [36] was > 100 µM (inactive). The GI50 [37] was > 100 µM (inactive), the GI50 [38] was > 100 µM (inactive) and the GI50 [39] was > 100 µM (inactive). The GI50 [40] was > 100 µM (inactive), the GI50 [41] was > 100 µM (inactive) and the GI50 [42] was > 100 µM (inactive). For the same molecule, the GI50 [43] was > 100 µM (inactive), the GI50 [44] was > 100 µM (inactive) and the GI50 [45] was > 100 µM (inactive). For the same molecule, the GI50 [46] was > 100 µM (inactive), the GI50 [47] was > 100 µM (inactive) and the GI50 [48] was > 100 µM (inactive). For the same molecule, the GI50 [49] was > 100 µM (inactive), the GI50 [50] was > 100 µM (inactive) and the GI50 [51] was > 100 µM (inactive). The GI50 [52] was > 100 µM (inactive).
With `Cn1nnc2c(C(N)=S)ncn2c1=O` the GI50 [1] was > 100 µM (inactive), the GI50 [53] was > 100 µM (inactive) and the GI50 [3] was > 100 µM (inactive). The GI50 [4] was > 100 µM (inactive), the GI50 [5] was > 100 µM (inactive) and the GI50 [6] was > 100 µM (inactive). For the same molecule, the GI50 [7] was > 100 µM (inactive), the GI50 [8] was > 100 µM (inactive) and the GI50 [9] was > 100 µM (inactive). The GI50 [54] was > 100 µM (inactive), the GI50 [11] was > 100 µM (inactive) and the GI50 [55] was > 100 µM (inactive). For the same molecule, the GI50 [12] was > 100 µM (inactive), the GI50 [56] was > 100 µM (inactive) and the GI50 [13] was greater than 100 µM. The GI50 [14] was > 100 µM (inactive), the GI50 [15] was > 100 µM (inactive) and the GI50 [16] was > 100 µM (inactive). For the same molecule, the GI50 [17] was > 100 µM (inactive), the GI50 [18] was > 100 µM (inactive) and the GI50 [19] was > 100 µM (inactive). The GI50 [20] was > 100 µM (inactive), the GI50 [21] was > 100 µM (inactive) and the GI50 [22] was > 100 µM (inactive). The GI50 [57] was > 100 µM (inactive), the GI50 [23] was > 100 µM (inactive) and the GI50 [24] was > 100 µM (inactive). For the same molecule, the GI50 [25] was > 100 µM (inactive), the GI50 [27] was > 100 µM (inactive) and the GI50 [28] was > 100 µM (inactive). For the same molecule, the GI50 [58] was > 100 µM (inactive), the GI50 [29] was > 100 µM (inactive) and the GI50 [30] was > 100 µM (inactive). The GI50 [31] was > 100 µM (inactive), the GI50 [59] was > 100 µM (inactive) and the GI50 [32] was > 100 µM (inactive). For the same molecule, the GI50 [34] was > 100 µM (inactive), the GI50 [35] was > 100 µM (inactive) and the GI50 [36] was > 100 µM (inactive). For the same molecule, the GI50 [37] was > 100 µM (inactive), the GI50 [38] was > 100 µM (inactive) and the GI50 [60] was > 100 µM (inactive). For the same molecule, the GI50 [61] was > 100 µM (inactive), the GI50 [39] was > 100 µM (inactive) and the GI50 [62] was > 100 µM (inactive). The GI50 [40] was 74.1 µM (inactive), the GI50 [41] was > 100 µM (inactive) and the GI50 [42] was > 100 µM (inactive). The GI50 [43] was > 100 µM (inactive), the GI50 [63] was > 100 µM (inactive) and the GI50 [44] was > 100 µM (inactive). For the same molecule, the GI50 [45] was > 100 µM (inactive), the GI50 [46] was > 100 µM (inactive) and the GI50 [47] was > 100 µM (inactive). The GI50 [48] was > 100 µM (inactive), the GI50 [50] was > 100 µM (inactive) and the GI50 [51] was > 100 µM (inactive). For the same molecule, the GI50 [52] was > 100 µM (inactive) and the GI50 [64] was > 100 µM (inactive).
